The NIST ThermoML archive (doi:10.1016/j.jct.2016.07.008)
Numbers after ± are expanded uncertainties.

Assay: xn = mol fraction of the nth substance listed
Details: Liquid, Vibrating wire viscometry

Cc1ccc(C)c(C)c1 [1,2,4-trimethylbenzene] + CCCCO
viscosity [mPa·s]
Details | x2 = 0.2999 | x2 = 0.5289 | x2 = 0.7991
293.15 K, 100 kPa | 1.004 ± 0.018 | 1.227 ± 0.021 | 1.959 ± 0.032
293.15 K, 1000 kPa | 1.019 ± 0.019 | 1.228 ± 0.021 | 1.977 ± 0.032
293.15 K, 5000 kPa | 1.066 ± 0.019 | 1.29 ± 0.022 | 2.057 ± 0.034
293.15 K, 10000 kPa | 1.104 ± 0.02 | 1.348 ± 0.023 | 2.177 ± 0.036
293.15 K, 20000 kPa | 1.197 ± 0.022 | 1.462 ± 0.025 | 2.381 ± 0.039
293.15 K, 30000 kPa | 1.292 ± 0.023 | 1.588 ± 0.027 | 2.563 ± 0.042
293.15 K, 40000 kPa | 1.391 ± 0.025 | 1.73 ± 0.03 | 2.757 ± 0.045
293.15 K, 50000 kPa | 1.516 ± 0.027 | 1.87 ± 0.032 | 2.995 ± 0.049
293.15 K, 60000 kPa | 1.65 ± 0.029 | 2.031 ± 0.035 | 3.241 ± 0.053
293.15 K, 70000 kPa | 1.804 ± 0.032 | 2.196 ± 0.037 | 3.481 ± 0.056
293.15 K, 80000 kPa | 1.938 ± 0.034 | 2.401 ± 0.041 | 3.754 ± 0.061
293.15 K, 100000 kPa | 2.236 ± 0.04 | 2.773 ± 0.047 | 4.289 ± 0.069
293.15 K, 120000 kPa | 2.578 ± 0.045 | 3.261 ± 0.055 | 4.849 ± 0.078
293.15 K, 140000 kPa | 2.956 ± 0.052 | 3.719 ± 0.062 | 5.47 ± 0.088
313.15 K, 100 kPa | 0.7478 ± 0.014 | 0.8685 ± 0.015 | 1.254 ± 0.021
313.15 K, 1000 kPa | 0.7546 ± 0.014 | 0.8775 ± 0.016 | 1.271 ± 0.021
313.15 K, 5000 kPa | 0.7792 ± 0.015 | 0.9012 ± 0.016 | 1.332 ± 0.022
313.15 K, 10000 kPa | 0.8286 ± 0.015 | 0.9526 ± 0.017 | 1.385 ± 0.023
313.15 K, 20000 kPa | 0.8853 ± 0.016 | 1.029 ± 0.018 | 1.506 ± 0.025
313.15 K, 30000 kPa | 0.9596 ± 0.018 | 1.116 ± 0.019 | 1.645 ± 0.027
313.15 K, 40000 kPa | 1.025 ± 0.019 | 1.201 ± 0.021 | 1.759 ± 0.029
313.15 K, 50000 kPa | 1.105 ± 0.02 | 1.293 ± 0.022 | 1.921 ± 0.032
313.15 K, 60000 kPa | 1.181 ± 0.021 | 1.402 ± 0.024 | 2.046 ± 0.034
313.15 K, 70000 kPa | 1.271 ± 0.023 | 1.492 ± 0.026 | 2.187 ± 0.036
313.15 K, 80000 kPa | 1.357 ± 0.024 | 1.612 ± 0.028 | 2.342 ± 0.038
313.15 K, 100000 kPa | 1.531 ± 0.027 | 1.821 ± 0.031 | 2.65 ± 0.043
313.15 K, 120000 kPa | 1.753 ± 0.031 | 2.065 ± 0.035 | 2.995 ± 0.049
313.15 K, 140000 kPa | 1.969 ± 0.035 | 2.367 ± 0.04 | 3.336 ± 0.054
